Experimental data: patent US20120276012A1, “Method of Treatment and Screening Method” (ISIS INNOVATION LIMITED, priority 2009, published 2012)
Substitutions are numbered along the chain they refer to.

Experiments:
[1] = biological target: T1, creatine transporter (CrT) (Homo sapiens, UniProt P48029); assay: 14C-labelled creatine uptake in fibroblast 3T3 cells that stably express the CrT; type: cell-based; conditions: 3T3 cells stably expressing CrT; increasing extracellular β-GPA concentration; 14C-creatine, 37° C. for 60 min; FIG. 5B
T1 construct: expressed in transfected cells
T1 sequence (P48029 1-635): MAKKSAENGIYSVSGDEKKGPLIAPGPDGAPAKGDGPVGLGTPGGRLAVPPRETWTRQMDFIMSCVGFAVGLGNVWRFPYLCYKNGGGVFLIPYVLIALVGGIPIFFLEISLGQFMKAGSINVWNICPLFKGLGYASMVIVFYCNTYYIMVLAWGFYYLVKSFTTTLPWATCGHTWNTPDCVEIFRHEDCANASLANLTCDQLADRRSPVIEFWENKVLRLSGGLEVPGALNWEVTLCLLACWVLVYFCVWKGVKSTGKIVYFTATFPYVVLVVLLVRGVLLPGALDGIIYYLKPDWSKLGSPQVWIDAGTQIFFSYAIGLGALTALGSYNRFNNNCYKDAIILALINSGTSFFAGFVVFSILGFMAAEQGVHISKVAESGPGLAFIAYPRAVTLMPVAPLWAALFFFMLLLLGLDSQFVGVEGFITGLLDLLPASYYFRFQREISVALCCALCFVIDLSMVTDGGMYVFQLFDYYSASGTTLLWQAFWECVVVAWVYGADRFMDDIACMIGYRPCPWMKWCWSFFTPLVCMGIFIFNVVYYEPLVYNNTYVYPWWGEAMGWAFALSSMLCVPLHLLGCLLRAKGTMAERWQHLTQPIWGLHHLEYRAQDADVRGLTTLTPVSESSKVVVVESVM
Description: We have developed a sensitive and specific assay for measuring ^14C-labelled Cr uptake in cell culture using fibroblast 3T3 cells that stably express the CrT. Cells (1×10^5 cells) were plated into 24-well-plates, and incubated for 18 hours to form monolayers. […] After incubation at 37° C. for 60 min (95% air, 5% CO2), media was aspirated, cells solubilised and lysed using PBS/TritonX-100. A scintillation counter measures signal attributed to intracellular radiolabel, with Cr uptake estimated against known standards. Control wells contain no test compound to measure normal background uptake, and control wells containing only cells are used for protein quantification.

[2] = biological target: T2, creatine transporter (CrT) (Mus musculus, UniProt Q8VBW1); assay: 14C-labelled creatine uptake in HL-1 cells expressing endogenous CrT; type: cell-based; conditions: HL1 cells incubated with 250 μM creatine; increasing extracellular β-GPA concentration; FIG. 5B
T2 construct: these cells express endogenous CrT; endogenous in cells; host or cells: HL-1 cells (mouse atrial cardiomyocyte-like)
T2 sequence (Q8VBW1 1-635): T1 sequence (P48029 1-635) with A24V, P25S, V38A, T42A, G223T, A368T, V539I
Description: Cells (1×10^5 cells) were plated into 24-well-plates, and incubated for 18 hours to form monolayers. Each well was spiked with 10 μl (37 kBq) ^14C-creatine, 500 μM of non-radiolabelled Cr, and 30 μM of test compound (β-guanidinopropionic acid) (performed in triplicate). After incubation at 37° C. for 60 min (95% air, 5% CO2), media was aspirated, cells solubilised and lysed using PBS/TritonX-100. A scintillation counter measures signal attributed to intracellular radiolabel, with Cr uptake estimated against known standards. Control wells contain no test compound to measure normal background uptake, and control wells containing only cells are used for protein quantification. […] HL-1 cells that are derived from mouse atrial tumour cells and have a beating cardiomyocyte-like phenotype. […] Changes in creatine uptake were measured using the ^14C screen described above.

With `N=C(N)NCCC(=O)O` [β-GPA, β-guanidinopropionic acid] the creatine uptake [1] was “dose-dependent inhibition of creatine uptake” and the creatine uptake [2] was “dose-dependent inhibition of creatine uptake”.
